Legend:
[1] = system: HEK293; assay: MTT cell viability assay, HEK293 normal kidney cells; assay type: cell-based, human; details: for IC50: MTT, 72 h, normal kidney cells, mean ± SD, n = 3
Experimental: (§1) All new tetrahydroquinoline derivatives were assessed for cytotoxicity on a broad panel of cancer and normal cell lines, using the MTT assay. The half-inhibitory growth inhibitory concentration (IC50) values of each compound were calculated after 72 h of treatment and presented in Table 1. […] In this assay, the IC50 value of 5-FU and ETP was recorded as a positive control.
(§2) Non-small cell lung cancer cells A549 (CCL-185), breast cancer cells MCF-7 ([…]), hepatocarcinoma cells HepG2 ([…]), normal kidney cells HEK293 (CRL-1573), and osteosarcoma cells U-2 OS (HTB-96) were obtained from the American Type Culture Collection. HCT-116 cell line was kindly provided by prof. Bert Vogelstein (Johns Hopkins University, Howard Hughes Medical Institute, USA). The obtained A549 and MCF-7 cells were cultured in RPMI-1640 medium, HepG2 cells in Minimum Essential Medium Eagle medium, HEK-293 cells in Dulbecco’s Modified Eagle’s medium, and U-2 OS and HCT-116 cells in McCoy’s […] medium. All culture media were supplemented with 10% fetal bovine serum, 2 mM L-glutamine, and antibiotics (penicillin 62.6 µg/ml and streptomycin 40 µg/ml; Sigma-Aldrich). Both cancer and normal cells were cultured at 37 °C under a humidified atmosphere with 5% or 10% CO2 and routinely screened for Mycoplasma contamination. All materials and reagents were obtained from Corning unless stated otherwise.
(§3) The cytotoxic effect of the synthesized compounds was assessed by the MTT (4,5-dimethylthiazol-2-yl-2,5-diphenyltetrazoliumbromide; Sigma-Aldrich) assay. Briefly, the cells were seeded into 96-well transparent flat-bottom plates and allowed to attach overnight. On the next day, the cells were treated with compounds in the range of 0–50 µM for 72 h. Dimethyl sulfoxide (DMSO; Merck) and 5-fluorouracil (5-FU; Sigma-Aldrich) were used as a reference. After exposure to the compounds, 20 μl of the MTT solution at a concentration of 4 mg/ml was added to each well, and the plates were incubated again for 2–3 h at 37 °C. Next, the media in the wells was replaced with 100 μl DMSO to solubilize the formazan crystals. The absorbance was measured at 540 nm using an ASYS UVM340 microplate reader (Biochrom Ltd.). The IC50 value of the compounds was calculated using GraphPad Prism 9 software, based on the curves plotted with survival as a function of dose, averaged from three independent experiments.

[2] = system: A549; assay: MTT cell viability assay, A549; assay type: cell-based, human; details: mean ± SD, n = 3
Experimental: as §1, §2, §3

[3] = system: Hela; assay: MTT cell viability assay, Hela; assay type: cell-based; details: 72 h, mean ± SD, n = 3
Experimental: as §1, §3

[4] = system: MCF-7; assay: MTT cell viability assay, MCF-7; assay type: cell-based, human; details: mean ± SD, n = 3
Experimental: as §1, §2, §3

[5] = system: HCT-116; assay: MTT cell viability assay, HCT-116; assay type: cell-based, human; details: mean ± SD, n = 3
Experimental: as §1, §2, §3

[6] = system: HepG2; assay: MTT cell viability assay, HepG2; assay type: cell-based; details: mean ± SD, n = 3
Experimental: as §1, §2, §3

[7] = system: tested cell lines (HCT-116, A549, MCF-7, HepG2, Hela, HEK293); assay: MTT assay, broad panel of cancer and normal cell lines; assay type: cell-based; details: range of 0–50 µM, 72 h
Experimental: as §1, §3

O=c1[nH]c2c(c(-c3ccccc3)c1Cc1ccc(C(F)(F)F)cc1)CCCC2 [Compound 4e, 4-phenyl-3-[[4-(trifluoromethyl)phenyl]methyl]-5,6,7,8-tetrahydro-1H-quinolin-2-one]
IC50 ([1]; Homo sapiens, HEK293): > 50 µM
IC50 ([2]; Homo sapiens, A549, 72 h): > 50 µM
IC50 ([3]; Homo sapiens, HeLa): > 50 µM
IC50 ([4]; Homo sapiens, MCF7, 72 h): > 50 µM
IC50 ([5]; Homo sapiens, HCT-116, 72 h): > 50 µM
IC50 ([6]; Homo sapiens, HepG2, 72 h): > 50 µM
effect on the tested cell lines [7]: did not have any effect

O=c1[nH]c2c(c(-c3ccccc3)c1Cc1ccc3ccccc3c1)CCCC2 [Compound 4b, 3-(2-naphthylmethyl)-4-phenyl-5,6,7,8-tetrahydro-1H-quinolin-2-one]
IC50 ([1]; Homo sapiens, HEK293): > 50 µM
IC50 ([2]; Homo sapiens, A549, 72 h): > 50 µM
IC50 ([3]; Homo sapiens, HeLa): > 50 µM
IC50 ([4]; Homo sapiens, MCF7, 72 h): > 50 µM
IC50 ([5]; Homo sapiens, HCT-116, 72 h): > 50 µM
IC50 ([6]; Homo sapiens, HepG2, 72 h): > 50 µM
effect on the tested cell lines [7]: did not have any effect

COc1cc([C@@H]2c3cc4c(cc3[C@@H](O[C@@H]3O[C@@H]5CO[C@@H](C)O[C@H]5[C@H](O)[C@H]3O)[C@H]3COC(=O)[C@H]23)OCO4)cc(OC)c1O [ETP, reference compound]
IC50 [1]: 1.91 ± 0.97 µM
IC50 ([2]; 72 h): 0.54 ± 0.21 µM
IC50 [3]: 3.4 ± 0.51 µM
IC50 ([4]; 72 h): 0.83 ± 0.15 µM
IC50 ([5]; 72 h): 0.39 ± 0.01 µM
IC50 ([6]; 72 h): 5.01 ± 0.22 µM

O=c1[nH]c2c(c(-c3ccccc3)c1Cc1ccc(-c3ccccc3)cc1)CCCC2 [Compound 4c, 4-phenyl-3-[(4-phenylphenyl)methyl]-5,6,7,8-tetrahydro-1H-quinolin-2-one]
IC50 ([1]; Homo sapiens, HEK293): > 50 µM
IC50 ([2]; Homo sapiens, A549, 72 h): > 50 µM
IC50 ([3]; Homo sapiens, HeLa): > 50 µM
IC50 ([4]; Homo sapiens, MCF7, 72 h): > 50 µM
IC50 ([5]; Homo sapiens, HCT-116, 72 h): > 50 µM
IC50 ([6]; Homo sapiens, HepG2, 72 h): > 50 µM
effect on the tested cell lines [7]: did not have any effect

O=c1[nH]cc(F)c(=O)[nH]1 [Compound 5-FU, 5-fluorouracil, reference compound]
IC50 ([1]; Homo sapiens, HEK293): 16.8 ± 0.34 µM
IC50 ([3]; Homo sapiens, HeLa): 11.1 ± 1.53 µM
IC50 ([4]; Homo sapiens, MCF7, 72 h): 8.41 ± 0.98 µM
IC50 ([5]; Homo sapiens, HCT-116, 72 h): 5.78 ± 0.38 µM
IC50 ([6]; Homo sapiens, HepG2, 72 h): 13.1 ± 0.32 µM

COc1nc2c(c(-c3ccccc3)c1Cc1cccc3ccccc13)CCCC2 [Compound 6, 2-methoxy-3-(1-naphthylmethyl)-4-phenyl-5,6,7,8-tetrahydroquinoline]
IC50 ([1]; Homo sapiens, HEK293): > 50 µM
suppressive effect on human normal HEK293 kidney cells ([1]; tested concentrations, compared to A549 and HCT-116): almost no suppressive effect
IC50 ([2]; Homo sapiens, A549, 72 h): 40.2 ± 0.94 µM
IC50 ([3]; Homo sapiens, HeLa): 50 µM
IC50 ([4]; Homo sapiens, MCF7, 72 h): > 50 µM
IC50 ([5]; 72 h): 15.6 ± 1.29 µM
IC50 ([5]; Homo sapiens, HCT-116, 72 h): ~13 µM
IC50 ([6]; Homo sapiens, HepG2, 72 h): > 50 µM

Clc1nc2c(c(-c3ccccc3)c1Cc1cccc3ccccc13)CCCC2 [Compound 5, 2-chloro-3-(1-naphthylmethyl)-4-phenyl-5,6,7,8-tetrahydroquinoline]
IC50 ([1]; Homo sapiens, HEK293): > 50 µM
IC50 ([2]; Homo sapiens, A549, 72 h): > 50 µM
IC50 ([3]; Homo sapiens, HeLa): > 50 µM
IC50 ([4]; Homo sapiens, MCF7, 72 h): > 50 µM
IC50 ([5]; 72 h): 13.1 ± 0.96 µM
IC50 ([5]; Homo sapiens, HCT-116, 72 h): ~13 µM
IC50 ([6]; Homo sapiens, HepG2, 72 h): > 50 µM

O=c1[nH]c2c(c(-c3ccccc3)c1Cc1cccc(-c3ccccc3)c1)CCCC2 [Compound 4d, 4-phenyl-3-[(3-phenylphenyl)methyl]-5,6,7,8-tetrahydro-1H-quinolin-2-one]
IC50 ([1]; Homo sapiens, HEK293): > 50 µM
IC50 ([2]; Homo sapiens, A549, 72 h): > 50 µM
IC50 ([3]; Homo sapiens, HeLa): > 50 µM
IC50 ([4]; Homo sapiens, MCF7, 72 h): > 50 µM
IC50 ([5]; Homo sapiens, HCT-116, 72 h): > 50 µM
IC50 ([6]; Homo sapiens, HepG2, 72 h): > 50 µM
effect on the tested cell lines [7]: did not have any effect

— paper PMC9646836, “Tetrahydroquinolinone derivatives exert antiproliferative effect on lung cancer cells through apoptosis induction” (Scientific Reports, 2022)
